Where only a bound is given, the exact number is not on record here.

Series [1] can be described thus: Pharmacokinetics experiments: mouse liver-to-serum concentration (L:S). The format is in vivo. The settings on record: BALB/c mice, 10 mg/kg p.o., 5 hour post dose. The procedure: BALB/c mice were dosed p.o. with 10 mg/kg compound formulated in 0.5% carboxy methycellulose+0.5% Tween-80 suspension. Mice were bled retro-orbitally at different time points post dose. Blood was processed into serum by centrifugation followed by protein precipitation, reverse-phase gradient elution and MRM detection via ESI+mass spectrometry to determine compound concentration. Animals were sacrificed after the final blood collection (5 hour), liver removed and flash frozen in liquid nitrogen for tissue PK analyses. The liver-to-serum concentration (L:S) at 5 hour post dose is one parameter for identifying compounds with potential enrichment in liver.
Mouse liver-to-serum concentration (L:S) table below provides results.

The next series deals with human TLR7 (hTLR7) (Homo sapiens (Human), UniProt Q9NYK1). The experiment in a line: HEK TLR7 assay (HEK-Blue hTLR7 cells, NF-kB/AP-1 SEAP reporter). The format is cell-based. The settings on record: for EC50: HEK-Blue hTLR7 cells, 16 h incubation, SEAP read at 620-655 nm. The source says: HEK-Blue™ TLR7 cells were purchased from Invivogen (San Diego, Calif.). The following description was taken from the product information sheet.
Chain of human TLR7 (hTLR7) (Q9NYK1 27-1049): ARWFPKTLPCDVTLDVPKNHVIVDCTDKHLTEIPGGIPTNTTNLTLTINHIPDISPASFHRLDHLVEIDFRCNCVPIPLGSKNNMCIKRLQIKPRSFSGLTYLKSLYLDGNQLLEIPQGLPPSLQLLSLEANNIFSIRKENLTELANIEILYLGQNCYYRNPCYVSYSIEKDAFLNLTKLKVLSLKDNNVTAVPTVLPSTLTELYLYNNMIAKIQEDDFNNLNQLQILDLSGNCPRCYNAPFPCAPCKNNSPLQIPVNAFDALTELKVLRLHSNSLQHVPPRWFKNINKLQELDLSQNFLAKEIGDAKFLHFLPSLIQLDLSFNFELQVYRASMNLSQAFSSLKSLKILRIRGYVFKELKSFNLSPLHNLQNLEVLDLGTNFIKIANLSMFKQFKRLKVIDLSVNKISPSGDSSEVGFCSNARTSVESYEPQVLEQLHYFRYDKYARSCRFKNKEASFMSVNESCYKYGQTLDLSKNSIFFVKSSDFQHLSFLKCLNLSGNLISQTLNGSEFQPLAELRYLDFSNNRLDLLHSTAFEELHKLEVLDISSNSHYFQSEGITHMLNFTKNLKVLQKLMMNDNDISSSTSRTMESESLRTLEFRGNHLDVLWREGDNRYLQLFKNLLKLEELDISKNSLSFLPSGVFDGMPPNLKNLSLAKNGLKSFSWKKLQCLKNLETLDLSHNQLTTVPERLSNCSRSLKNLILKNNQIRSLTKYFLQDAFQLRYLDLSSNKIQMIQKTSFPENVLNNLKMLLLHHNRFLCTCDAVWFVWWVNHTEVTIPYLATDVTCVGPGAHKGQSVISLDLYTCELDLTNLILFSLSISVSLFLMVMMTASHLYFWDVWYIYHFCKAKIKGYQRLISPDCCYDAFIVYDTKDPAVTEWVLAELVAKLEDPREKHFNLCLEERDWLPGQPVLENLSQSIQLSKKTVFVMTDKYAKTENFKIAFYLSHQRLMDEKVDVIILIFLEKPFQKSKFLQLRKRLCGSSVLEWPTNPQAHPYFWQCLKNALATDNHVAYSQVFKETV
“HEK-Blue™ hTLR7 cells are designed for studying the stimulation of human TLR7 (hTLR7) by monitoring the activation of NF-kB. HEK-Blue™ hTLR7 cells were obtained by co-transfection of the hTLR7 gene and an optimized secreted embryonic alkaline phosphatase (SEAP) reporter gene into HEK293 cells. The SEAP reporter gene is placed under the control of the IFN-b minimal promoter fused to five NF-kB and AP-1-binding sites. Stimulation with a TLR7 ligand activates NF-kB and AP-1 which induce the production of SEAP, which is detected by the HEK-Blue™ Detection cell culture medium.”
A typical assay protocol involved the following steps: • 1. Cells were cultured according to the product information sheet. • 2. 10 mM compound stock in DMSO were first diluted to 3 mM and then 3-fold serially diluted using DMSO to afford a 10-pt dilution. • 3. 3 μl of the diluted DMSO were added to 57 μl HEK-Blue™ Detection media for a further 20-fold dilution. • 4. 10 μl of the diluted compound in assay media were added into 40 μl cell culture (in HEK-Blue™ Detection media) in 384-well plate. Final cell concentration=8,000 cells per well. • 5. The plates were incubated at 37° C. in 5% CO2 for 16 h. SEAP was determined using a spectrophotometer at 620-655 nm.

The term EC50 denotes the concentration giving half of the maximal effect. As for `CCCCNc1nc(N)nc(C)c1Cc1cc(C(C)(C)C(=O)O)ccc1OC` [Compound 9, 2-(3-((2-amino-4-(butylamino)-6-methylpyrimidin-5-yl)methyl)-4-methoxyphenyl)-2-methylpropanoic acid], in series [1], the “L:S at 5 hr (liver-to-serum concentration)” value (“L:S at 5 hr” below) was “A (A = >100 represents high liver-enrichment)”. The EC50 on human TLR7 (hTLR7) is 100 to 1000 nM.

Regarding `CCCCNc1nc(N)nc(C)c1Cc1cc(C(C)(C)c2nn[nH]n2)ccc1OC` [Compound 10, 5-(5-(2-(2H-tetrazol-5-yl)propan-2-yl)-2-methoxybenzyl)-N4-butyl-6-methylpyrimidine-2,4-diamine], in series [1], the “L:S at 5 hr” value is “B (B = 10-100 represents moderate liver-enrichment)”. Moreover, the EC50 on human TLR7 (hTLR7) was in the range of 100 to 1000 nM.

For `CCCCNc1nc(N)nc(C)c1Cc1cc(-c2nn[nH]n2)ccc1OC` [Compound 11, N4-butyl-5-(2-methoxy-5-(2H-tetrazol-5-yl)benzyl)-6-methylpyrimidine-2,4-diamine], the “L:S at 5 hr” value in series [1] is reported as “A (A = >100 represents high liver-enrichment)”. The compound also had an EC50 on human TLR7 (hTLR7) of 100 to 1000 nM.

`CCCCNc1nc(N)nc(C)c1Cc1cc(P(=O)(O)O)ccc1OC` [Compound 12, (3-((2-amino-4-(butylamino)-6-methylpyrimidin-5-yl)methyl)-4-methoxyphenyl)phosphonic acid]: the “L:S at 5 hr” value in series [1] was “B (B = 10-100 represents moderate liver-enrichment)”. This compound came in with an EC50 on human TLR7 (hTLR7) of 100 to 1000 nM.

`CCCCNc1nc(N)nc(C)c1Cc1cc(C2(c3nn[nH]n3)CC2)ccc1OC` [Compound 13, 5-(5-(1-(2H-tetrazol-5-yl)cyclopropyl)-2-methoxybenzyl)-N4-butyl-6-methylpyrimidine-2,4-diamine]: the “L:S at 5 hr” value in series [1] is reported as “B (B = 10-100 represents moderate liver-enrichment)”. On human TLR7 (hTLR7), this compound showed an EC50 of 100 to 1000 nM.

For the compound `CCCCNc1nc(N)nc(CCC(=O)O)c1Cc1ccccc1OC` [Compound 15, 3-(2-amino-6-(butylamino)-5-(2-methoxybenzyl)pyrimidin-4-yl)propanoic acid], the “L:S at 5 hr” value in series [1] is “B (B = 10-100 represents moderate liver-enrichment)”. At human TLR7 (hTLR7), the EC50 is 100 to 1000 nM.

As for `CCCCNc1nc(N)nc(C)c1Cc1cc(S(=O)(=O)O)ccc1OC` [Compound 17, 3-((2-amino-4-(butylamino)-6-methylpyrimidin-5-yl)methyl)-4-methoxybenzenesulfonic acid], the “L:S at 5 hr” value in series [1] is “B (B = 10-100 represents moderate liver-enrichment)”. The EC50 at human TLR7 (hTLR7) was < 100 nM.

Take `CCCC[C@@H](CCO)Nc1nc(N)nc(C)c1Cc1cc(Cc2nn[nH]n2)ccc1OC` [Compound 18, (S)-3-((5-(5-((2H-tetrazol-5-yl)methyl)-2-methoxybenzyl)-2-amino-6-methylpyrimidin-4-yl)amino)heptan-1-ol]: in series [1], the “L:S at 5 hr” value is given as “A (A = >100 represents high liver-enrichment)”. The EC50 at human TLR7 (hTLR7) is < 100 nM.

For the compound `CCCC[C@@H](CC(=O)O)Nc1nc(N)nc(C)c1Cc1cc(Cc2nn[nH]n2)ccc1OC` [Compound 20, (S)-3-((5-(5-((2H-tetrazol-5-yl)methyl)-2-methoxybenzyl)-2-amino-6-methylpyrimidin-4-yl)amino)heptanoic acid], the “L:S at 5 hr” value in series [1] is recorded as “A (A = >100 represents high liver-enrichment)”. Besides, the “potency of (S)-enantiomer relative to (R)-enantiomer (Compound 20C) in the HEK-TLR7 assay” value on human TLR7 (hTLR7) (Compound 20 vs Compound 20C) was > 10 fold. Moreover, on human TLR7 (hTLR7), the EC50 was in the range of 100 to 1000 nM.

As for `CCCCNc1nc(N)nc(C)c1Cc1cc(B(O)O)ccc1OC` [Compound 24, (3-((2-amino-4-(butylamino)-6-methylpyrimidin-5-yl)methyl)-4-methoxyphenyl)boronic acid], the “L:S at 5 hr” value in series [1] is “B (B = 10-100 represents moderate liver-enrichment)”. At human TLR7 (hTLR7), the EC50 is < 100 nM.

As for `CCCC[C@@H](CC(=O)O)Nc1nc(N)nc(CCC(=O)O)c1Cc1ccccc1OC` [Compound 29, (S)-3-((2-amino-6-(2-carboxyethyl)-5-(2-methoxybenzyl)pyrimidin-4-yl)amino)heptanoic acid], the “L:S at 5 hr” value in series [1] is reported as “A (A = >100 represents high liver-enrichment)”. Also, the EC50 on human TLR7 (hTLR7) lay within 100 to 1000 nM.

Regarding `CCCCNc1nc(N)nc(C)c1Cc1cc(C(=O)NCCCP(=O)(O)O)ccc1OC` [Compound 30, (3-(3-((2-amino-4-(butylamino)-6-methylpyrimidin-5-yl)methyl)-4-methoxybenzamido)propyl)phosphonic acid], the “L:S at 5 hr” value in series [1] is given as “A (A = >100 represents high liver-enrichment)”. At human TLR7 (hTLR7), this compound displayed an EC50 of 100 to 1000 nM.

In the case of `CCCC[C@@H](CCOC)Nc1nc(N)nc(C)c1Cc1cc(Cc2nn[nH]n2)ccc1OC` [Compound 32, (S)-5-(5-((2H-tetrazol-5-yl)methyl)-2-methoxybenzyl)-N^4-(1-methoxyheptan-3-yl)-6-methylpyrimidine-2,4-diamine], in series [1], the “L:S at 5 hr” value was “A (A = >100 represents high liver-enrichment)”. Besides, the EC50 at human TLR7 (hTLR7) is < 100 nM.

`CCCC[C@@H](CCSC)Nc1nc(N)nc(C)c1Cc1cc(C(C)(C)C(=O)O)ccc1OC` [Compound 33, (S)-2-(3-((2-amino-4-methyl-6-((1-(methylthio)heptan-3-yl)amino)pyrimidin-5-yl)methyl)-4-methoxyphenyl)-2-methylpropanoic acid]: in series [1], the “L:S at 5 hr” value is “A (A = >100 represents high liver-enrichment)”. Also, the EC50 at human TLR7 (hTLR7) was < 100 nM.

Take `CCCC[C@@H](CCSC)Nc1nc(N)nc(C)c1Cc1cc(-c2nn[nH]n2)ccc1OC` [Compound 34, (S)-5-(2-methoxy-5-(2H-tetrazol-5-yl)benzyl)-6-methyl-N^4-(1-(methylthio)heptan-3-yl)pyrimidine-2,4-diamine]: the “L:S at 5 hr” value in series [1] is “A (A = >100 represents high liver-enrichment)”. The EC50 at human TLR7 (hTLR7) was < 100 nM.

Consider `CCCCNc1nc(N)nc(CCC(=O)O)c1Cc1cc(Cc2nn[nH]n2)ccc1OC` [Compound 40, 3-(5-(5-((2H-tetrazol-5-yl)methyl)-2-methoxybenzyl)-2-amino-6-(butylamino)pyrimidin-4-yl)propanoic acid], for which the “L:S at 5 hr” value in series [1] was “A (A = >100 represents high liver-enrichment)”. The compound also displayed an EC50 at human TLR7 (hTLR7) of 100 to 1000 nM.

On to `CCCC[C@@H](CC(=O)O)Nc1nc(N)nc(C)c1Cc1ccccc1OC` [Compound 41, (S)-3-((2-amino-5-(2-methoxybenzyl)-6-methylpyrimidin-4-yl)amino)heptanoic acid], for which the “L:S at 5 hr” value in series [1] is “B (B = 10-100 represents moderate liver-enrichment)”. For the same compound, on human TLR7 (hTLR7), the EC50 lay in the range of 100 to 1000 nM.

With `CCCC[C@@H](CC(=O)O)Nc1nc(N)nc(C)c1Cc1cc(C(C)(C)C(=O)O)ccc1OC` [Compound 42, (S)-3-((2-amino-5-(5-(2-carboxypropan-2-yl)-2-methoxybenzyl)-6-methylpyrimidin-4-yl)amino)heptanoic acid], the “L:S at 5 hr” value in series [1] is given as “A (A = >100 represents high liver-enrichment)”. In addition, the EC50 at human TLR7 (hTLR7) was in the range of 100 to 1000 nM.

As to `CCCCNc1nc(N)nc(CCC(=O)O)c1Cc1cc(C(C)(C)C(=O)O)ccc1OC` [Compound 43, 2-(3-((2-amino-4-(butylamino)-6-(2-carboxyethyl)pyrimidin-5-yl)methyl)-4-methoxy-phenyl)-2-methylpropanoic acid], in series [1], the “L:S at 5 hr” value is “A (A = >100 represents high liver-enrichment)”. Further, on human TLR7 (hTLR7), the EC50 lay within 1000 to 10000 nM.

Consider `CCCC[C@@H](CC(=O)O)Nc1nc(N)nc(C)c1Cc1cc(C(=O)NCCCP(=O)(O)O)ccc1OC` [Compound 44, (S)-3-((2-amino-5-(2-methoxy-S-((3-phosphonopropyl)carbamoyl)benzyl)-6-methyl-pyrimidin-4-yl)amino)heptanoic acid], for which the “L:S at 5 hr” value in series [1] is reported as “B (B = 10-100 represents moderate liver-enrichment)”. At human TLR7 (hTLR7), this compound came in with an EC50 of 100 to 1000 nM.

`CCCC[C@@H](CC(=O)O)Nc1nc(N)nc(CCC(=O)O)c1Cc1cc(C(C)(C)C(=O)O)ccc1OC` [Compound 45, (S)-3-((2-amino-6-(2-carboxyethyl)-5-(5-(2-carboxypropan-2-yl)-2-methoxy-benzyl)pyrimidin-4-yl)amino)heptanoic acid]: in series [1], the “L:S at 5 hr” value is “A (A = >100 represents high liver-enrichment)”. The compound further had an EC50 at human TLR7 (hTLR7) of 1000 to 10000 nM.

For `CCCC[C@@H](CC(=O)O)Nc1nc(N)nc(CCC(=O)O)c1Cc1cc(Cc2nn[nH]n2)ccc1OC` [Compound 46, (S)-3-((5-(5-((2H-tetrazol-5-yl)methyl)-2-methoxybenzyl)-2-amino-6-(2-carboxyethyl)-pyrimidin-4-yl)amino)heptanoic acid], the “L:S at 5 hr” value in series [1] is “B (B = 10-100 represents moderate liver-enrichment)”. This compound also came in with an EC50 on human TLR7 (hTLR7) of 100 to 1000 nM.
